Laboratory results reported in patent US9686984B2, “Macrocyclic picolinamides as fungicides” (DOW AGROSCIENCES LLC, priority 2014, dated 2017).
Like-named read-outs stand apart in the source and are kept apart here.

Experiments:
Zymoseptoria tritici = assay: Leaf Blotch of Wheat (SEPTTR) disease control on wheat seedlings; type: in vivo; conditions: Low Volume (121.5 g/H)
Method: Example A: Evaluation of Fungicidal Activity: Leaf Blotch of Wheat (Mycosphaerella graminicola; Anamorph: Zymoseptoria tritici; Bayer code […]) Technical grades of materials were dissolved in acetone, which were then mixed with nine volumes of water containing 110 ppm Triton X-100. The fungicide solutions were applied onto wheat seedlings using an automated booth sprayer to run-off. All sprayed plants were allowed to air dry prior to further handling. All fungicides were evaluated using the aforementioned method for their activity vs. all target diseases, unless stated otherwise. Wheat leaf blotch and brown rust activity were also evaluated using track spray applications, in which case the fungicides were formulated as EC formulations, containing 0.1% Trycol 5941 in the spray solutions. Wheat plants (variety Yuma) were grown from seed in a greenhouse in 50% mineral soil/50% soil-less Metro mix until the first leaf was fully emerged, with 7-10 seedlings per pot. These plants were inoculated with an aqueous spore suspension of Septoria tritici either prior to or after fungicide treatments. After inoculation the plants were kept in 100% relative humidity (one day in a dark dew chamber followed by two to three days in a lighted dew chamber at 20° C.) to permit spores to germinate and infect the leaf. The plants were then transferred to a greenhouse set at 20° C. for disease to develop. When disease symptoms were fully expressed on the 1st leaves of untreated plants, infection levels were assessed on a scale of 0 to 100 percent disease severity. Percent disease control was calculated using the ratio of disease severity on treated plants relative to untreated plants.

Puccinia triticina = assay: Wheat Brown Rust (PUCCRT) disease control on wheat seedlings; type: in vivo; conditions: Low Volume (121.5 g/H)
Method: Technical grades of materials were dissolved in acetone, which were then mixed with nine volumes of water containing 110 ppm Triton X-100. The fungicide solutions were applied onto wheat seedlings using an automated booth sprayer to run-off. All sprayed plants were allowed to air dry prior to further handling. All fungicides were evaluated using the aforementioned method for their activity vs. all target diseases, unless stated otherwise. Wheat leaf blotch and brown rust activity were also evaluated using track spray applications, in which case the fungicides were formulated as EC formulations, containing 0.1% Trycol 5941 in the spray solutions. Wheat plants (variety Yuma) were grown from seed in a greenhouse in 50% mineral soil/50% soil-less Metro mix until the first leaf was fully emerged, with 7-10 seedlings per pot. These plants were inoculated with an aqueous spore suspension of Septoria tritici either prior to or after fungicide treatments. After inoculation the plants were kept in 100% relative humidity (one day in a dark dew chamber followed by two to three days in a lighted dew chamber at 20° C.) to permit spores to germinate and infect the leaf. The plants were then transferred to a greenhouse set at 20° C. for disease to develop. When disease symptoms were fully expressed on the 1st leaves of untreated plants, infection levels were assessed on a scale of 0 to 100 percent disease severity. Percent disease control was calculated using the ratio of disease severity on treated plants relative to untreated plants. Example B: Evaluation of Fungicidal Activity: Wheat Brown Rust (Puccinia triticina; Synonym: Puccinia recondita f. sp. tritici; Bayer code PUCCRT) Wheat plants (variety Yuma) were grown from seed in a greenhouse in 50% mineral soil/50% soil-less Metro mix until the first leaf was fully emerged, with 7-10 seedlings per pot. These plants were inoculated with an aqueous spore suspension of Puccinia triticina either prior to or after fungicide treatments. After inoculation the plants were kept in a dark dew room at 22° C. with 100% relative humidity overnight to permit spores to germinate and infect the leaf. The plants were then transferred to a greenhouse set at 24° C. for disease to develop. Fungicide formulation, application and disease assessment followed the procedures as described in the Example A.

[1] = 24 h, 1 Day Protectant, read-out: SEPTTR disease control, 1 DP
[2] = 72 h, 3 Day Curative, read-out: SEPTTR disease control, 3 DC
[3] = 24 h, 1 Day Protectant, read-out: PUCCRT disease control, 1 DP
[4] = 72 h, 3 Day Curative, read-out: PUCCRT disease control, 3 DC

| Structure (SMILES) | pest or weed control at 121.5 g/ha (Zymoseptoria tritici; [1]) [%] | pest or weed control at 121.5 g/ha (Zymoseptoria tritici; [2]) [%] | pest or weed control at 121.5 g/ha (Puccinia triticina; [3]) [%] | pest or weed control at 121.5 g/ha (Puccinia triticina; [4]) [%] |
| --- | --- | --- | --- | --- |
| COc1ccnc(C(=O)N[C@H]2CCOC[C@@H](Cc3ccccc3)[C@H](C)OC2=O)c1OC(C)=O [Compound 1] | > 70 | > 70 | > 70 | > 70 |
| COCC[C@H]1OCC[C@H](NC(=O)c2nccc(OC)c2OC(C)=O)C(=O)O[C@@H](C)[C@@H]1Cc1ccccc1 [Compound 4] | > 70 | > 70 | > 70 | > 70 |
| COc1ccnc(C(=O)N[C@H]2CCOC[C@@H](Cc3ccc(F)cc3)[C@H](C)OC2=O)c1OC(C)=O [Compound 5] | > 70 | < 70 | > 70 | > 70 |
| CCCC[C@H]1OCC[C@H](NC(=O)c2nccc(OC)c2OC(C)=O)C(=O)O[C@@H](C)[C@@H]1Cc1ccc(F)cc1 [Compound 6] | > 70 | > 70 | > 70 | > 70 |
| COc1ccnc(C(=O)N[C@H]2CCO[C@H](CCc3ccccc3)[C@@H](Cc3ccc(F)cc3)[C@H](C)OC2=O)c1OC(C)=O [Compound 7, 2-(((2R,3S,4S,7S)-3-(4-fluorobenzyl)-4-methyl-6-oxo-2-phenethyl-1,5-dioxonan-7-yl)carbamoyl)-4-methoxypyridin-3-yl acetate] | > 70 | > 70 | > 70 | > 70 |
| COCC[C@H]1OCC[C@H](NC(=O)c2nccc(OC)c2OC(C)=O)C(=O)O[C@@H](C)[C@@H]1Cc1ccc(F)cc1 [Compound 8] | > 70 | < 70 | > 70 | > 70 |
| COc1ccnc(C(=O)N[C@H]2CCO[C@H](CCc3ccccc3)[C@@H](CCC(C)C)[C@H](C)OC2=O)c1OC(C)=O [Compound 9] | > 70 | > 70 | > 70 | > 70 |
| COc1ccnc(C(=O)N[C@H]2CCO[C@H](CCc3ccc(F)cc3)[C@@H](CCC(C)C)[C@H](C)OC2=O)c1OC(C)=O [Compound 10] | > 70 | > 70 | > 70 | > 70 |
| COc1ccnc(C(=O)N[C@H]2CCOC[C@@H](Cc3ccccc3-c3ccccc3)[C@H](C)OC2=O)c1OC(C)=O [Compound 11] | > 70 | < 70 | > 70 | > 70 |
| COc1ccnc(C(=O)N[C@H]2CCO[C@H](Cc3ccccc3)[C@@H](CCC(C)C)[C@H](C)OC2=O)c1OC(C)=O [Compound 12] | > 70 | > 70 | > 70 | > 70 |
| CCCC[C@H]1[C@H](C)OC(=O)[C@@H](NC(=O)c2nccc(OC)c2OC(C)=O)CCO[C@@H]1CCc1ccccc1 [Compound 13] | > 70 | > 70 | > 70 | > 70 |
| CCCC[C@H]1[C@H](C)OC(=O)[C@@H](NC(=O)c2nccc(OC)c2OC(C)=O)CCO[C@@H]1CC [Compound 14] | > 70 | < 70 | > 70 | > 70 |
| CCCC[C@H]1[C@H](C)OC(=O)[C@@H](NC(=O)c2nccc(OC)c2OC(C)=O)CCO[C@@H]1COc1ccccc1 [Compound 15] | > 70 | > 70 | > 70 | > 70 |
| COc1ccnc(C(=O)N[C@H]2CCOC[C@@H](Cc3ccccc3)[C@H](C)OC2=O)c1OCOC(C)=O [Compound 16] | < 70 | < 70 | > 70 | > 70 |
| CCCC[C@H]1OCC[C@H](NC(=O)c2nccc(OC)c2OCOC(C)=O)C(=O)O[C@@H](C)[C@@H]1Cc1ccccc1 [Compound 18] | > 70 | > 70 | > 70 | > 70 |
| COc1ccnc(C(=O)N[C@H]2CCO[C@H](Cc3ccccc3)[C@@H](Cc3ccccc3)[C@H](C)OC2=O)c1OCOC(C)=O [Compound 19] | > 70 | > 70 | > 70 | > 70 |
| COCC[C@H]1OCC[C@H](NC(=O)c2nccc(OC)c2OCOC(C)=O)C(=O)O[C@@H](C)[C@@H]1Cc1ccccc1 [Compound 20] | > 70 | > 70 | > 70 | > 70 |
| COc1ccnc(C(=O)N[C@H]2CCOC[C@@H](Cc3ccc(F)cc3)[C@H](C)OC2=O)c1OCOC(C)=O [Compound 21] | > 70 | < 70 | > 70 | > 70 |
| CC[C@H]1OCC[C@H](NC(=O)c2nccc(OC)c2OCOC(C)=O)C(=O)O[C@@H](C)[C@@H]1Cc1ccc(F)cc1 [Compound 22] | > 70 | > 70 | > 70 | > 70 |
| CCCC[C@H]1OCC[C@H](NC(=O)c2nccc(OC)c2OCOC(C)=O)C(=O)O[C@@H](C)[C@@H]1Cc1ccc(F)cc1 [Compound 23] | > 70 | > 70 | > 70 | > 70 |
| COc1ccnc(C(=O)N[C@H]2CCO[C@H](CCc3ccccc3)[C@@H](Cc3ccc(F)cc3)[C@H](C)OC2=O)c1OCOC(C)=O [Compound 24, ((2-(((2R,3S,4S,7S)-3-(4-fluorobenzyl)-4-methyl-6-oxo-2-phenethyl-1,5-dioxonan-7-yl)carbamoyl)-4-methoxypyridin-3-yl)oxy)methyl acetate] | > 70 | > 70 | > 70 | > 70 |
| COCC[C@H]1OCC[C@H](NC(=O)c2nccc(OC)c2OCOC(C)=O)C(=O)O[C@@H](C)[C@@H]1Cc1ccc(F)cc1 [Compound 25] | < 70 | < 70 | > 70 | > 70 |
| COc1ccnc(C(=O)N[C@H]2CCOC[C@@H](Cc3ccccc3-c3ccccc3)[C@H](C)OC2=O)c1OCOC(C)=O [Compound 28] | > 70 | > 70 | > 70 | > 70 |
| COc1ccnc(C(=O)N[C@H]2CCOC[C@@H](CCC(C)C)[C@H](C)OC2=O)c1OCOC(C)=O [Compound 30] | > 70 | > 70 | > 70 | > 70 |
